In paper PMC9570599, “Kribbellichelins A and B, Two New Antibiotics from Kribbella sp. CA-293567 with Activity against Several Human Pathogens” (Molecules, 2022):
In brackets after ≈: the same amount, converted by molar mass. Several values for one entry are separate records, joined by “and”; a condition that tells them apart may be missing. Identical values can stand only once. Entries after “also recorded” stand apart in the source; their conditions may differ. Like-named read-outs stand apart in the source and are kept apart here. Blank lines part the entries; values can stand above or below the molecule they belong to.

Legend:
Saccharomyces cerevisiae = system: Saccharomyces cerevisiae; parameters: method as in PMID 28074052; conditions: previously reported; cited from earlier work
A. fumigatus ATCC-46645 = assay: Antifungal growth inhibition assay, A. fumigatus; type: cell-based, Aspergillus fumigatus; conditions: for IC50 / inhibition at 7.2 µg/mL: Aspergillus fumigatus; for inhibition at 7.2 µg/mL: at 7.2 µg/mL (optimal concentration), atypical profile, Eagle effect, read-out: maximum inhibition against A. fumigatus; for decreasing inflection point against A. fumigatus: less inhibition at higher concentrations (Eagle effect)
Method: (§1) Purification fractions and purified compounds 1–3 and 5 were tested against a wide panel of antimicrobial assays for the growth inhibition of human pathogens including MRSA MB-5393, A. baumannii MB-5973, P. aeruginosa MB-5919, A. fumigatus ATCC-46645, and C. albicans ATCC-64124 as 10-point curves with 1:2 dilutions starting at 128 μg/mL in duplicate, following previously described methodologies. Most of the pathogens were acquired from the American Type Culture Collection (ATCC)(Manassas, VA, USA), except for those already present in our MEDINA bacteria collection (MB). Pathogen panel investigated was selected according to typical reference strains and procedures indicated by the […].
(§2) The antifungal assay was performed following this methodology; briefly, a thawed stock inoculum suspension from a cryovial of A. fumigatus and C. albicans was streaked onto PDA and Sabouraud Dextrose Agar medium, respectively, and suspended in RPMI-1640 modified medium and incubated at 37 °C for 24 h. Spores concentration of A. fumigatus was determined by counting in Neubauer chamber in order to dilute the culture and obtain an assay inoculum of 2.5 × 10^4 spores/mL. For C. albicans, the OD660 was adjusted to 0.25 using RPMI-1640 modified as diluent and blank. Then, a dilution from the adjusted inoculum was prepared at 1/100 to inoculate 96-well assay plates.
(§3) For the assay, 90 μL/well of the diluted inoculum was mixed with 1.6 μL/well of compound dissolved in DMSO and 8.4 μL/well of MHII or BHI medium for Gram-negative and Gram-positive strains, respectively. Vancomycin was included as an internal plate control for MRSA. A rifampicin, aztreonam, and amphotericin B dose-response curve was used as a positive control against P. aeruginosa, A. baumannii and A. fumigatus, and C. albicans, respectively. Each compound was tested as a 10-point dose-response curve by 1:2 serial dilutions in DMSO starting at 128 µg/mL in duplicate. Total growth was measured using the EnVision® (Redwood City, CA, USA) Multilabel plate reader (Perkin Elmer) with two readings, one at initial time and one after which the microorganism was incubated at 37 °C for 18–20 hours. For the A. fumigatus assay, total growth was measured with a single reading after the incubation.

[1] = system: human hepatoma cell line HepG2 (ATCC HB-8065); assay: MTT cytotoxicity bioassay; type: cell-based; conditions: 72 h; for cytotoxicity against HepG2 (in words): up to 40 µg/mL
Method: Pure compounds were assayed against the human hepatoma cell line HepG2 (ATCC HB-8065) in an MTT test as 20-point curves with 1:2 dilutions starting at 40 μg/mL in triplicate. Cells were seeded at 10.000 cells/well in a 96-well plate (Corning 96-well TC-treated microplates) for 24 h and after addition of compounds 1–3 and 5 plates were incubated for 72 h. MMS (methylmethanesulfonate, Sigma-Aldrich, 4 mM) was used as the positive control, and DMSO 0.5% as the negative control. After addition of MMT dye (thiazolyl blue tetrazoliumbromide, ACROS Organics), cells were incubated for 2–3 h and supernatant was removed. Resulting formazan crystals were finally dissolved by means of 100 µL DMSO (100%) and absorbance was measured at 570 nm. The obtained data was analyzed using Genedata Screener software (Genedata, Inc., Basel, Switzerland) and Prim 9.4.1 software, from GraphPad was used for titrations representation.

C. albicans ATCC-64124 = assay: Antifungal growth inhibition assay, C. albicans; type: cell-based, Candida albicans
Method: as §1, §2, §3

P. aeruginosa MB-5919 = assay: Gram-negative antibacterial growth inhibition assay, P. aeruginosa; type: cell-based, Pseudomonas aeruginosa; conditions: for activity against P. aeruginosa (in words): pure compound, up to 128 µg/mL; for maximum activity of growth inhibition plateau, P. aeruginosa: at concentrations higher than 10 µg/mL
Method: as §1
(§4) Gram-negative antibacterial assay was performed following this procedure; thawed stock inoculum from vials was streaked onto MHII agar plates and incubated overnight at 37 °C. Isolated colonies were selected and inoculated in 25 mL of MHII liquid growth medium in 250 mL Erlenmeyer flasks overnight at 37 °C. MHII liquid growth medium was used in a 96-well plate assay, adjusting at 5 × 10^5 colony forming units (cfu)/mL (OD600 nm).
as §3

A. baumannii MB-5973 = assay: Gram-negative antibacterial growth inhibition assay, A. baumannii; type: cell-based, Acinetobacter baumannii; conditions: for activity against A. baumannii (in words): pure compound, up to 128 µg/mL; for maximum activity of growth inhibition plateau, A. baumannii: at concentrations higher than 10 µg/mL
Method: as §1, §4, §3

MRSA MB-5393 = assay: Gram-positive antibacterial growth inhibition assay, MRSA; type: cell-based, methicillin-resistant Staphylococcus aureus; conditions: for activity against MRSA (in words): pure compound, up to 128 µg/mL
Method: as §1
For Gram-positive MRSA, a thawed stock inoculum suspension from a cryovial of this microorganism was streaked onto brain heart infusion (BHI) agar plate and incubated at 37 °C overnight to obtain isolated colonies. Single colonies were inoculated into 10 mL of BHI broth medium in 250 mL Erlenmeyer flask and incubated overnight at 37 °C with shaking at 220 rpm and then diluted in order to obtain an assay inoculum of 1.1 × 10^6 CFU/mL [52].
as §3

Bacillus subtilis = system: Bacillus subtilis; parameters: method as in PMID 8436549; conditions: previously reported; cited from earlier work
Streptococcus faecalis = system: Streptococcus faecalis; parameters: method as in PMID 8436549; conditions: previously reported; cited from earlier work
S. aureus = system: S. aureus; parameters: method as in PMID 8436549; conditions: previously reported; cited from earlier work

IC50 (A. fumigatus ATCC-46645; ATCC46645, A. fumigatus ATCC-46645, read-out: IC50 against A. fumigatus): 13.7 µg/mL (≈ 20.8 µM)
SMILES: CC(C)CCCCCCCCCCCCCOC[C@@H](O)CO[C@H]1O[C@H](C(=O)O)[C@@H](O[C@H]2O[C@H](CO)[C@@H](O)[C@H](O)[C@H]2O)[C@H](O)[C@H]1O [Compound 5, kribelloside C]
antifungal activity versus Saccharomyces cerevisiae (in words) (Saccharomyces cerevisiae): interesting activities as an antifungal agent | cytotoxicity against HepG2 (in words) [1]: no relevant cytotoxicity | activity against C. albicans (in words) (C. albicans ATCC-64124; pure compound, up to 128 µg/mL): no activity; also recorded: not observed | activity against P. aeruginosa (in words) (P. aeruginosa MB-5919): no activity | activity against A. baumannii (in words) (A. baumannii MB-5973): no activity | activity against MRSA (in words) (MRSA MB-5393): no activity

SMILES: COC(=O)c1cc(O)c(O)c(C(=O)NCCC(=O)N[C@@H](CCCN(O)C(=O)[C@H](CO)NC(=O)CCNC(=O)c2nc(C(=O)OC)cc(O)c2O)C(=O)OC)n1 [Compound 2, kribbellichelin B]
inhibition at 7.2 µg/mL (A. fumigatus ATCC-46645; ATCC46645): 40% | decreasing inflection point against A. fumigatus (A. fumigatus ATCC-46645): ~50 µg/mL | cytotoxicity against HepG2 (in words) [1]: nor significant cytotoxic activity; also recorded: no relevant cytotoxicity | maximum activity of growth inhibition plateau, P. aeruginosa (P. aeruginosa MB-5919): 30% | activity against P. aeruginosa (in words) (P. aeruginosa MB-5919): minor inhibitory properties | maximum activity of growth inhibition plateau, A. baumannii (A. baumannii MB-5973): 45% | activity against A. baumannii (in words) (A. baumannii MB-5973): minor inhibitory properties | activity against MRSA (in words) (MRSA MB-5393): no activity

SMILES: CC(C)[C@H]1C(=O)OC[C@@H](NC(=O)c2nc3ccccc3cc2O)C(=O)N2CCCC[C@H]2C(=O)NCC(=O)N(C)CC(=O)N(C)[C@@H](C(C)C)C(=O)OC[C@@H](NC(=O)c2nc3ccccc3cc2O)C(=O)N2CCCC[C@@H]2C(=O)NCC(=O)N(C)CC(=O)N1C [Compound 3, sandramycin]
IC50 (A. fumigatus ATCC-46645; ATCC46645, read-out: IC50 against A. fumigatus): 5.72 µg/mL and 4.69 µM | antibiotic activity versus Bacillus subtilis (in words) (Bacillus subtilis): strong antibiotic activity | ED50 cytotoxic activity against HepG2 ([1]; molar value in brackets): 0.00129 µM | antibiotic activity versus Streptococcus faecalis (in words) (Streptococcus faecalis): strong antibiotic activity | IC50 (C. albicans ATCC-64124; Candida albicans, ATCC64124, read-out: IC50 versus C. albicans): 7.55 µg/mL and 6.19 µM | activity against P. aeruginosa (in words) (P. aeruginosa MB-5919): no antibacterial activity | activity against A. baumannii (in words) (A. baumannii MB-5973): no antibacterial activity | antibiotic activity versus S. aureus (in words) (S. aureus): strong antibiotic activity | IC50 (MRSA MB-5393; Staphylococcus aureus, MRSA, read-out: IC50 versus MRSA MB-5393): 0.31 µg/mL and 250 nM

IC50 versus C. albicans (C. albicans ATCC-64124; C. albicans ATCC-64124, 10-point curve from 128 µg/mL, duplicate): 11.72 µg/mL (≈ 15.3 µM) | IC50 (C. albicans ATCC-64124; C. albicans ATCC-64124, molar value in brackets, read-out: IC50 versus C. albicans): 15.3 µM | IC50 (C. albicans ATCC-64124; Candida albicans, ATCC64124, C. albicans ATCC-64124, 10-point curve from 128 µg/mL, duplicate, read-out: IC50 versus C. albicans): 11.7 µg/mL | IC50 (C. albicans ATCC-64124; Candida albicans, ATCC64124, C. albicans ATCC-64124, molar value in brackets, read-out: IC50 versus C. albicans): 15.2 µM
SMILES: COC(=O)c1cc(O)c(O)c(C(=O)NCCC(=O)N[C@@H](CCCN(O)C(=O)[C@H](CO)NC(=O)CCNC(=O)c2nc(C(=O)OC)cc(O)c2O)C(=O)O)n1 [Compound 1, kribbellichelin A]
inhibition at 7.2 µg/mL (A. fumigatus ATCC-46645; ATCC46645): 40% | decreasing inflection point against A. fumigatus (A. fumigatus ATCC-46645): ~50 µg/mL | cytotoxicity against HepG2 (in words) [1]: nor significant cytotoxic activity; also recorded: no relevant cytotoxicity | maximum activity of growth inhibition plateau, P. aeruginosa (P. aeruginosa MB-5919): 30% | activity against P. aeruginosa (in words) (P. aeruginosa MB-5919): minor inhibitory properties | maximum activity of growth inhibition plateau, A. baumannii (A. baumannii MB-5973): 45% | activity against A. baumannii (in words) (A. baumannii MB-5973): minor inhibitory properties | activity against MRSA (in words) (MRSA MB-5393): no activity
